From patent publication US20250115595A1, “INHIBITORS OF HYPOXIA-INDUCIBLE FACTORS” (The Johns Hopkins University, priority 2021, published 2025)

Tests used:
VEGF and ANGPTL4 mRNA = test: mRNA expression in hypoxic MIO-M1 cells; format: cell-based, human; conditions: hypoxia, 10 μM
Description: It has previously been reported that the cells in the inner nuclear layer of the retina that express VEGF in response to hypoxia/ischemia are Müller glial cells (X. Xin et al., Proc Natl Acad Sci USA 110, E3425-3434 (2013)). […] The effects of 32-134D on HIF-1α accumulation persisted up to 16 hours after treatment of cultured cells (FIG. 27B).
Reverse transcription and quantitative real-time PCR: Total RNA was isolated from cultured cells or retinas with PureLink™ RNA Mini Kit (Invitrogen #12183025), and cDNA was prepared with MuLV Reverse Transcriptase (Applied Biosystems). Quantitative real-time PCR was performed with Power SYBR Green PCR Master Mix (Applied Biosystems) and MyiQ Real-Time PCR Detection System (Bio-Rad). Normalization was done using cyclophilin A for mouse tissue and human cell lines.

OIR mice = test: OIR mouse model, intraperitoneal dosing; format: in vivo
Description: The ability of 32-143D to inhibit ischemia-induced retinal neovascularization was evaluated using the oxygen-induce retinopathy (OIR) model for retinal neovascularization in ischemic retinal diseases, such as retinopathy of prematurity, proliferative diabetic retinopathy, ischemic retinal vein occlusions, or sickle cell retinopathy. Postnatal day 7 (P7) newborn C57BL/6 pups were exposed to hyperoxia (75% O2) for 5 consecutive days before being returned to room air at P12. Beginning at P13, pups were treated with […] IP injections with 32-134D at 20 mg/kg or with vehicle control. 24 hours after the fifth IP injection, at P17, retinal flat mounts were stained with isolectin-B4 to examine the development of retinal neovascularization.
OIR mouse model: OIR experiments were performed as previously described (M. Rodrigues et al., 2013, Diabetes 62, 3863-3873). Briefly, C57BL/6 mice were placed in 75% O2 on P7. On P12, the mice were returned to room air and administered either by IP injection (digoxin and test compound) or by intravitreal injection. Mice with body weight less than 6 g at P17 were excluded from analysis. The data were collected from both males and females and the results combined, as there was no apparent difference between sexes. Representative images for selected time points from a minimum of three independent experiments are shown. Data from 3-8 pups were obtained at each time point.

[1] = tested on: tumor immune microenvironment; test: Flow cytometry of immune cell populations in Hepa1-6 tumors; format: in vivo, mouse; conditions: 200-mm3 tumors, within 8 days
Description: To analyze the mechanism by which 32-134D increased the response to anti-Pd1 therapy, tumor-bearing mice were treated with 32-134D or vehicle, and immune cell populations in well-established 200-mm^3 tumors were analyzed by flow cytometry.
Hepa1-6 tumors were digested with collagenase (1 mg/ml) at 37° C. for 30 minutes and the resulting single cell suspension was passed through a 70-μm cell strainer and washed twice with cold PBS. Cells were resuspended in FC buffer for subsequent flow cytometry analysis. […]

STZ mice = test: STZ diabetic mouse model, intraperitoneal dosing; format: in vivo; conditions: 5 daily IP injections 40 mg/kg
Description: The ability of 32-143D to inhibit vascular permeability in diabetic patients was evaluated using the streptozotocin (STZ) model for diabetic macular edema. 8-to-10-week-old C57BL/6 mice were administered STZ by IP injection. Hyperglycemia (serum glucose >250 mg/dL) was confirmed by glucometer 2 weeks later. After 6 months of sustained hyperglycemia, mice were treated with 5 daily IP injections with 32-134D at 40 mg/kg or with vehicle control. 24 hours after the fifth IP injection, mice were euthanized, Evans blue perfusion was performed, and retina flat mounts were examined for vascular leakage.
Vascular permeability by Evans blue tracer method: Mice were anesthetized with a mixture of ketamine (50 mg/kg) and xylazine (5 mg/kg) and subjected to Evans blue (Sigma) (50 mg/kg) perfusion by penile vein injection. […] Images were captured by Zeiss fluorescent microscope or confocal microscopy and fluorescence quantified by image J software (NIH). […] Blinded quantification of the number of leaking vessels was performed by manual counting major leakage from capillaries from retinas of each group. Non-capillary artifactual Evans blue or FITC-dextran leakage due to flat mount processing as well as minor leakages were not included in the quantitation. […] Random fields were chosen from retinas where leakages were absent to determine baseline fluorescence that arise from capillaries. […]

[2] = daily IP injections 20 mg/kg from P13, P17

## Brc1ccc2c(-c3csc(-c4c[nH]c5c(Br)cccc45)n3)c[nH]c2c1 [Compound 32-134D, 4-(6-bromo-1H-indol-3-yl)-2-(7-bromo-1H-indol-3-yl)thiazole]
VEGF and ANGPTL4 mRNA
  mRNA expression of VEGF and ANGPTL4: potent inhibition
OIR mice; [2]
  area of avascular retina: not significantly different
  retinal neovascularization: significant decrease in neovascularization
OIR mice; five consecutive (P12-P16) IP injections, 20 mg/kg, P17
  mRNA expression of key HIF-regulated vasoactive mediators: marked reduction
OIR mice; single IP injection, as little as 20 mg/kg, P13 and P14
  HIF-1α and HIF-2α protein accumulation in retina: reduction
[1]
  percentage of Cd8+Ifng+ activated CTLs and Nk1.1+Cd3−Cd314+ activated NK cells: significantly increased
  percentage of Cd11b+F4/80+ tumor-associated macrophages and Cd11b+Ly6g+Ly6c− myeloid-derived suppressor cells: decrease
STZ mice
  vascular leakage (Evans blue fluorescence intensity): significantly decreased vascular leakage
